# In patent US20030138429A1, “Compositions and methods for inhibiting metastasis” (priority 2001, published 2003):
# “Also recorded” adds a separate entry of the source.
# Legend:
# [1] = tested on: 1-LN human prostate tumor cells; assay: Binding of 125I-labeled Pg 2 glycoforms to 1-LN cells; conditions: for BINDING +6-AHA: binding to surface of 1-LN cells in presence of 6-AHA; for BINDING +6-AHA / BINDING +L-lactose: Yes/No; for BINDING +L-lactose: binding to surface of 1-LN cells in presence of L-lactose; for Binding to 1-LN cells: in words; for Bound (Molecules × 10^5/cell): maximal binding, mean ± SD
# Procedure: Ligand Binding Analysis—Cells were grown in tissue culture plates until the monolayers were confluent. Prior to use in binding assays, the cells were washed in HBSS. All binding assays were performed at 4° C. in RPMI 1640 containing 2% bovine serum ablumin (BSA). Increasing concentrations of ^125I-labeled Pg 2 glycoforms were incubated with cells for 60 min in 48-well or 96-well culture plates, respectively. Free ligand was separated from bound by aspirating the incubation mixture by and washing the cell monolayers rapidly three times with RPMI 1640 containing 2% BSA. The cells were then lyzed with 0.1 M NaOH, and bound radioactivity was determined in a Pharmacia LKB Biotechnology 1272-gamma counter. Molecules of ligand bound were calculated after substraction of non-specific binding measured in the presence of nonlabeled 100 μM Pg 2. Estimates for dissociation constant (Kd) values and maximal binding of Pg 2 glycoforms (Bmax) were determined by fitting data directly to the Langmuir isotherm using the statistical program SYStat® for Windows.
# Binding of Single Pg 2 Glycoforms to 1-LN Human Prostate Tumor Cells—Binding of ^125I-labeled single Pg 2 glycoforms to 1-LN cells was determined as described under Experimental Procedures. Native Pg 2 has six glycoforms which differ in their sialic acid content.
# In order to assess the binding mechanism of the individual Pg 2 glycoforms to 1-LN cells, we studied their activation by cells incubated with each glycoform in the presence of 6-aminohexanoic acid (6-AHA) and L-lactose. The antifibrinolytic amino acid 6-AHA prevents interaction of Pg L-lysine binding sites with several cell membrane-associated components. L-lactose is a sugar which intereferes with binding of Neu 5-AC (α2-3) or (α2-6) residues to sialic acid binding proteins and inhibits binding of Native Pg 2 to DPP IV on the surface of rheumatoid synovial fibroblasts.
# [2] = molecular target: T1, DPP IV isolated from 1-LN cell membranes (Homo sapiens, UniProt P27487); assay: Solid phase radioligand binding of Pg 2 glycoforms to immobilized DPP IV; conditions: for Binding to immobilized DPP IV: DPP IV 1 μg/ml coated on 96-well plates, in words
# T1 construct: DPP IV from 1-LN cell membranes was purified to homogeneity as described under Experimental Procedures; endogenous in cells; host or cells: 1-LN human prostate tumor cells; Membranes were solubilized with Triton X-100; The enzyme was then purified on DEAE-Sepharose, Gly-Leu-Sepharose, concanavalin A-Sepharose and by gel filtration
# Procedure: Purification of DPP IV from 1-LN Cell Membranes—Cells grown in 20 culture flasks (150 cm^2) were detached with 10 mM EDTA in Hanks' balanced salt solution (HBSS) and pelleted by centrifugation. The cell pellet was suspended in 10 ml of 20 mM Hepes, pH 7.2, containing 0.25 M sucrose and 0.5 mg/ml each of the following proteinase inhibitors: antipain-HCl, bestatin, chymostatin, transepoxysuccinyl-L-leucylamido-(4-guanidino)butane (E-64), leupeptin, pepstatin, O-phenanthroline, and aprotinin. Cells were lyzed by sonication on ice (five 10 s bursts with 30 s intervals). All procedures were performed at 4° C. The homogenate was centrifuged at 800×g for 15 min to remove unbroken cells and nuclei, followed by centrifugation of the supernatant at 50,000×g for 1 h. The pellet containing cell membranes was resuspended in 20 mM Tris-HCl, pH 8.0, containing 1% (v/v) Triton X-100 to solubilize membranes and centrifuged again at 50,000×g for 30 min to remove insoluble materials. DPP IV activity in this supernatant and in all the following purification steps was monitored by a chromogenic assay using the DPP IV substrate Gly-Pro-pNA [36]. The enzyme was sequentially purified to homogeneity using DEAE-Sepharose ion exchange chromatography and Gly-Leu-Sepharose affinity chromatography, followed by chromatography on concanavalin A-Sepharose and gel filtration on a Sepharose S-200 column. These steps yielded fully active DPP IV (˜40 μg/1×10^9 cells). […] A sample of the protein was analyzed by matrix-assisted laser desorption ionization-MS, and the obtained mass spectrometric peptide maps (30 peptides) were used to identify DPP IV in the OWL Protein database release 29.6 [38,39].
# Solid Phase Radioligand Binding Studies—To study specific binding of Pg 2 glycoforms to immobilized DPP IV purified from 1-LN cells, 96-well strip plates were coated with DPP IV (1 μg/ml in 0.1 M sodium carbonate, pH 9.6, 200 μl/well, 37° C., 2 h). After coating, plates were washed with 200 μl of 10 mM sodium phosphate, 100 mM NaCl, pH 7.4, containing 0.05% Tween-80 (PBS-Tween) to remove unbound protein. Non-specific sites were blocked by incubating with PBS-Tween containing 2% BSA at room temperature for 1 h. Plates were rinsed twice with 200 μl of PBS-Tween, air dried, and stored at 4° C. For assays, increasing concentrations of ^125I-labeled Pg 2 glycoforms, with or without 50-fold excess of unlabeled ligands, were added to triplicate wells and incubated at 37° C. for 1 h. Following incubation, the supernatants were removed and the plates rinsed three times with 200 μl PBS-Tween. Wells were stripped from the plates and radioactivity measured. Specific binding was calculated by substraction of non-specific binding measured in the presence of unlabeled ligand.
# Binding of Pg 2 Glycoforms to Immobilized DPP IV Isolated from 1-LN Cell Membranes—Once identified as a Pg receptor, DPP IV from 1-LN cell membranes was purified to homogeneity as described under Experimental Procedures. […] A blot binding assay with mAb clone in the Mr˜120,000 size range. […] DPP IV immobilization on cell culture plates and binding assays of Pg 2 glycoforms were performed as described under Experimental Procedures.
# 1-LN cells = assay: In vitro Matrigel invasion assay (modified Boyden chamber); type: cell-based, human
# Procedure: In Vitro Invasion Assay—The invasive activity in vitro was assessed by determining the ability of 1-LN cells to invade Matrigel® [47]. Polycarbonate filters (8-μm pore size; Becton Dickinson, Franklin Lakes, N.J.) were coated with Matrigel (12 μg/filter) and placed in a modified Boyden chamber. Cells (1×10^5) were added to the upper chamber in serum-free RPMI 1640 medium, or medium containing purified Pg 2 glycoforms in the absence and presence of anti-DPP IV, anti-u-PA or anti-MMP-9 IgGs, and incubated for 48 h in a humidified atmosphere. Following incubation, non-invading cells were removed from the upper chamber with a cotton swab, and filters were excised and stained with Cyto-Quik™ (Fisher Scientific, Fair Lawn, N.J.). Cells on the lower surface of the filter were enumerated using an ocular micrometer and counting a minimum of five high-powered fields. Each experiment was performed twice with triplicate samples.
# Effect of Pg on 1-LN Cellular Invasion—Pg enhances the ability of prostate cancer PC-3 and DU-145 cell lines to penetrate the synthetic basement membrane Matrigel® [54]. To determine whether Pg regulates invasion via secretion of MMP-9, 1-LN cells were incubated with different inhibiting antibodies in the presence of purified Pg 2 glycoforms.
# [3] = 125I-labeled glycoform, 1-LN cell monolayers, serum-free RPMI 1640, mean ± SD
# [4] = 125I-labeled glycoform, 1-LN cell monolayers
# [5] = Serum-Free Medium + glycoform 0.1 μM
# [6] = glycoform 0.1 μM +Anti-DPP IV IgG 50 μg/ml
# [7] = glycoform 0.1 μM +Anti-MMP-9 IgG 20 μg/ml
# [8] = glycoform 0.1 μM +Anti-u-PA IgG 100 μg/ml
# T1 sequence (P27487 whole entry): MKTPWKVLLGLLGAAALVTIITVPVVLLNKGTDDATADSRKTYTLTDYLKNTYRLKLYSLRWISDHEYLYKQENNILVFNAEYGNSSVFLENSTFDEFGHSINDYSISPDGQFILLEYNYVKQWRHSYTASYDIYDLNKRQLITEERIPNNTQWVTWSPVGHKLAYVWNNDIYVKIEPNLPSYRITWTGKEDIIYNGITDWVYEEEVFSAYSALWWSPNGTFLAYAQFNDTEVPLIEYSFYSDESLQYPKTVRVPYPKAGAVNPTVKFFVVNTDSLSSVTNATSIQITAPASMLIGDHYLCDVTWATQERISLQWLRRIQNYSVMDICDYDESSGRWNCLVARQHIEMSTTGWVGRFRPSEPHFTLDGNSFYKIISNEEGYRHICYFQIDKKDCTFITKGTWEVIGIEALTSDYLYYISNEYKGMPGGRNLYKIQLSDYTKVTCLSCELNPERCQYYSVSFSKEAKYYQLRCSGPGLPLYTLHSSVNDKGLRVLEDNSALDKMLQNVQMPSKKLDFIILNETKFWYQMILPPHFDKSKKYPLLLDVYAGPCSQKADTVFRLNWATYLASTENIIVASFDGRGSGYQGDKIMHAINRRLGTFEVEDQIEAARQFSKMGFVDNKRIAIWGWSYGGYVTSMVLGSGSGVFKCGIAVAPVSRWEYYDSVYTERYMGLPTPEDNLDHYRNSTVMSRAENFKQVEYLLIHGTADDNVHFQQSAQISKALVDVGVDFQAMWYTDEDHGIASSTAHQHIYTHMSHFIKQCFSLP
"Inhibition of binding of 125I-labeled Pg 2γ, 2δ and 2ε to DPP IV ([2]; glycoforms 0.1 μM each, increasing concentrations of L-lactose)",Compound,"Inhibition of binding of single Pg 2 glycoforms to 1-LN cells ([1]; 125I-labeled glycoform 0.1 μM, increasing concentrations of inhibitor)","Kd [1, 3] [nM]",BINDING +6-AHA [1],BINDING +L-lactose [1],Binding to 1-LN cells [1],"Bound (Molecules × 10^5/cell) [1, 4] [Molecules × 10^5/cell]",Binding to immobilized DPP IV [2],Relative Invasion (Number of Cells/Field) (1-LN cells; [5]),Relative Invasion (Number of Cells/Field) (1-LN cells; [6]),Relative Invasion (Number of Cells/Field) (1-LN cells; [7]),Relative Invasion (Number of Cells/Field) (1-LN cells; [8]),Enhancement of cellular invasion (1-LN cells; Matrigel invasion by 1-LN cells),"Kd (nM) [1, 3]"
progressively inhibited,"OC[C@@H]1O[C@H](O[C@@H]2[C@@H](O)[C@H](O)C(O)O[C@H]2CO)[C@@H](O)[C@H](O)[C@@H]1O (stereo partly drawn) [L-lactose, reference compound]","inhibited binding of Pgs 2γ, 2δ, and 2ε",,,,,,,,,,,,
,Pg 2α: glycoform of human plasminogen type 2 purified from plasma; 1.3 mol sialic acid/mol Pg,,24.3 ± 1.33,No,Yes,bind to 1-LN cells in a dose-dependent manner with high affinity,13.0 ± 4.6,No specific binding,13.5 ± 3.4 Number of Cells/Field,,,,,
,Pg 2β: glycoform of human plasminogen type 2 purified from plasma; 2.2 mol sialic acid/mol Pg,,7.4 ± 1.86,No,Yes,bind to 1-LN cells in a dose-dependent manner with high affinity,8.3 ± 1.3,No specific binding,9.4 ± 2.1 Number of Cells/Field,,,,,
,Pg 2γ: glycoform of human plasminogen type 2 purified from plasma; 2.95 mol sialic acid/mol Pg,,10.6 ± 1.43,Yes,No,bind to 1-LN cells in a dose-dependent manner with high affinity,8.6 ± 1.7,bind to this DPP IV in a dose-dependent and saturable manner,7.8 ± 1.6 Number of Cells/Field,4.6 ± 2.7 Number of Cells/Field,2.1 ± 1.2 Number of Cells/Field,5.3 ± 2.8 Number of Cells/Field,,
,Pg 2δ: glycoform of human plasminogen type 2 purified from plasma; 5.77 mol sialic acid/mol Pg,,13.6 ± 1.04,Yes,No,bind to 1-LN cells in a dose-dependent manner with high affinity,18.1 ± 2.4,bind to this DPP IV in a dose-dependent and saturable manner,9.2 ± 2.5 Number of Cells/Field,10.4 ± 3.1 Number of Cells/Field,1.8 ± 1.0 Number of Cells/Field,7.8 ± 2.6 Number of Cells/Field,,
,Pg 2ε: glycoform of human plasminogen type 2 purified from plasma; 5.34 mol sialic acid/mol Pg,,3.8 ± 0.83,Yes,No,bind to 1-LN cells in a dose-dependent manner with high affinity,9.4 ± 0.8,bind to this DPP IV in a dose-dependent and saturable manner,46.6 ± 5.4 Number of Cells/Field,3.1 ± 1.6 Number of Cells/Field,1.5 ± 1.0 Number of Cells/Field,2.1 ± 1.3 Number of Cells/Field,6-7 fold,
,Pg 2φ: glycoform of human plasminogen type 2 purified from plasma; 13.65 mol sialic acid/mol Pg,,,,,does not bind; also recorded: No binding,,No specific binding,6.8 ± 1.3 Number of Cells/Field,,,,,No Binding
